Experiments:
[1] = target: T1, GST-IRTK (Homo sapiens, UniProt P06213); assay: UV-absorption spectra titration; assay type: binding
T1 construct: GST-tagged IRTK (GST-IRTK, a.a. 1011-1382); purchased Invitrogen
Protocol: UV-Vis absorption for protein binding was obtained using the Cary 300 UV-Visible spectrophotometer (Varian Inc., Palo Alto, Calif.) equipped with 1.0 cm quartz cells. The spectra were scanned from 200 to 800 nm in Tris buffer (0.01M Tris, 0.05M NaCl, 10 mM MgCl2, pH 7.8). During the spectrophotometric titrations, protein (GST or GST-IRTK) was added to a cell containing a constant amount of compound. The absorbances at 602 nm were recorded (data were read for three times and mean value was obtain by averaging) and the obtained data were processed with KaleidaGraph (Synergy Software). Repeated measurements were done for all the samples and no significant differences were observed (The reproducibility errors is less than 5%). Binding results from the UV titration experiments were fit with a one site interaction model: r=K*Cfree/(1+K*Cfree) Where r represents the moles of bound compound per mole of protein, K is macroscopic binding constants, and Cfree is the free compound concentration in equilibrium with the complex. Insulin Competition Assay
Several small molecules bind to the intracellular kinase domain of IR (IRTK) and provoke its activation. DDN might also interact with the IRTK to activate IR. To test this possibility, an UV-absorption spectra analysis was performed using recombinant IRTK. […]

[2] = target: T1, GST-IRTK; assay: IR in vitro kinase assay (histone H2B phosphorylation); assay type: biochemical; conditions: different concentrations of compound
Protocol: Parental CHO cells were used as a negative control (bottom panel). The fluorescence-labeled cells were analyzed on flow cytometry. (B) DDN binds to IRTK. UV-visible spectra were scanned from 200 to 800 nm for IRTK fragment in the presence of DDN or its analogue. When DDN binds to IRTK, it elicits the absorption alteration at 560 and 602 nm. (C) DDN protects IRTK from proteolysis. GST-IRTK was subjected to limited trypsin digestion in the presence of DDN (50 μM), ATP-γ-S (5 μM) or both. The reaction mixture was resolved by SDS-PAGE, followed by silver staining (D) DDN increases IRTK activity in vitro.
(§1) Parental CHO cells were used as a negative control (Bottom panel). The fluorescence-labeled cells were analyzed on flow cytometry. (B) 4524-E7 protects IRTK from proteolysis. GST-IRTK was subjected to limited trypsin or chymotrypsin digestion in the presence of 4524-E7 (50 μM), ATPyS (5 μM) or both at 37° C. for 5 min. The reaction mixture was resolved by SDS-PAGE, followed by silver staining Cleaved fragments were asterisked. (C) 4524-E7 increases IRTK activity in vitro. Recombinant GST-IRTK, GST-IGFRTK, and GST-EGFRTK were incubated with different concentrations of 4524-E7 or 10 μM 2—NH2-NQ and the kinase activity was examined by monitoring the phosphorylation of histone H2B. (E) In vitro kinase activity of various IRTK/IGF-1R kinase hybrids. The GFP-tagged kinases were expressed in HEK293, immunoprecipitated and incubated with different concentrations of 4524-E7 as indicated. […] Expressions of the kinases were also verified (lower panel).
Recombinant GST-IRTK was incubate with 50 mM tris-HCl (pH7.4), 10 mM MgCl2, and 50 μM ATP with different concentration of compound for 15 min at 25° C. Histone H2B (0.35 μg/ml) and [γ32P]ATP (0.25 μCi/ul) were added and the samples were further incubated for 10 min. The sample was separated on a SDS-polyacrylamide gel and autoradiographed.

[3] = target: T2, IGF-IR (Mus musculus, UniProt Q60751); assay: IGF-IR activation in mouse muscle and liver; assay type: in vivo; conditions: C57BL/6J mice, 20 mg/kg oral
T2 construct: from tissue; host or cells: muscle and liver of C57BL/6J mice

[4] = target: FGFR1 (Homo sapiens, UniProt P11362); assay: RTK kinase profile screen assay; assay type: biochemical; conditions: 10 μM
[5] = target: MET (Homo sapiens, UniProt P08581); assay: RTK kinase profile screen assay; assay type: biochemical; conditions: 10 μM
[6] = tested on: MCF7 cells; assay: Proliferation of MCF7 cells; assay type: cell-based
[7] = tested on: EGFR, ErbB2, EphAl, FGFR1, VEGFR1, cMet, TrkB, PDGFRa, RET; assay: RTK kinase profile screen assay; assay type: biochemical
[8] = target: GFP-IRTK R2; assay: In vitro kinase assay of IRTK/IGF-1R kinase hybrids; assay type: biochemical, human; conditions: R2 region of IRTK replaced with IGF-1R
Protocol: as §1
To test if these regions are the action sites of 4524-E7, several GFP-tagged hybrid kinases were generated with R1 (GFP-IRTK R1), R2 (GFP-IRTK R2) or both (GFP-IRTK R1+R2) regions of IRTK and replaced with the corresponding sequence of IGF-1R. These mutants were then used to perform the in vitro kinase assay in the presence of 4524-E7. […]

[9] = target: IR (Homo sapiens, UniProt P06213); assay: IR phosphorylation in transfected HEK293 cells (Western blot); assay type: cell-based; set-up: expressed in transfected cells; host or cells: HEK293; conditions: 4524-E7 5 μM, insulin 100 nM
Sequence of IR (P06213 28-1382): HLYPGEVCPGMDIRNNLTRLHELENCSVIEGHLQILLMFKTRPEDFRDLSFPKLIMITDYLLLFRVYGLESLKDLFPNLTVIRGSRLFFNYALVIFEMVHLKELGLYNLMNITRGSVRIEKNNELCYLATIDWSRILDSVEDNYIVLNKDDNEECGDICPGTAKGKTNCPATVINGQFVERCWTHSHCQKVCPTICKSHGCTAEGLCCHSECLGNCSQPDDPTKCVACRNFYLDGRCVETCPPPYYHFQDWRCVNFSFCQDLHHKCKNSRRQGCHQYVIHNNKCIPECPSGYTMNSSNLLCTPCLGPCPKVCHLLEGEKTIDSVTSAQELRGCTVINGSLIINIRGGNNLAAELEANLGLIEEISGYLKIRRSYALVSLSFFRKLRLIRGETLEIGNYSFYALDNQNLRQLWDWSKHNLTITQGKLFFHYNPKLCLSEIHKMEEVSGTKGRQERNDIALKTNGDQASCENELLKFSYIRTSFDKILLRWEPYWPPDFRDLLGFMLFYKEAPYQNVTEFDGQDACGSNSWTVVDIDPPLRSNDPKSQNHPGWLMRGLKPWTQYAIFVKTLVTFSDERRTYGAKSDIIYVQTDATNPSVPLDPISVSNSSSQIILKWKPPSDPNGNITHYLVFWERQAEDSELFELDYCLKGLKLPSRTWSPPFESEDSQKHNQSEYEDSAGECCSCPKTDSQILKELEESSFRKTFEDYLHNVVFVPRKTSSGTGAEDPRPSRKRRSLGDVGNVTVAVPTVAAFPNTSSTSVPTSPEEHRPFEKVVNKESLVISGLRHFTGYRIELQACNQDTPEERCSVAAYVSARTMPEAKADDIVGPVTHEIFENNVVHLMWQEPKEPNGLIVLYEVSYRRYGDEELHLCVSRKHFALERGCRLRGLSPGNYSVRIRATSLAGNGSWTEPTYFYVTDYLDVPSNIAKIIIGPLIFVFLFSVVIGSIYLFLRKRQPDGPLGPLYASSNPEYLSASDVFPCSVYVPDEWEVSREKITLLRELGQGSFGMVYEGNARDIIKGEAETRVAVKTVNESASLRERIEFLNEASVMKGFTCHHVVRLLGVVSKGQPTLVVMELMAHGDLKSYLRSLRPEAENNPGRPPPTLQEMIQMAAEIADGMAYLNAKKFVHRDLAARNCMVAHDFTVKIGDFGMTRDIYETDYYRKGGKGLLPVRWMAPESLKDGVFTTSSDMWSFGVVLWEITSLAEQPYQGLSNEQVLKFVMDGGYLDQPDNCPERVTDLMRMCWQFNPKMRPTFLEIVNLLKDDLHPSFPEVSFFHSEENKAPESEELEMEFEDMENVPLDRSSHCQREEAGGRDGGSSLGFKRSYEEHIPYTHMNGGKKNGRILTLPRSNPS
Protocol: Cells were lysed, and IR phosphorylations were tested by ELISA. The IR phosphorylation activities of the tested compounds were expressed as a percentage of the vehicle. […] The cell lysates were analyzed by immunoblotting with various indicated antibodies. The phosphorylated IR was immunoprecipitated using PY20 and analyzed by immunoblotting with anti-IR13 antibody. […] The phosphorylation of each receptor was determined by Western blot using specific antibodies as indicated. […] Then the cells were lysated and the transfected receptor fused to His tag were pulled down with Ni+ beads, followed by western blot against anti-p-Tyr and anti-His. The cell lysates were tested with anti-p-Akt and anti-Akt.
Whether 4524-E7 can activate other receptors of RTK family was tested. […] To further explore the specificity, several hybrid recombinant RTKs were generated by replacing IGFR and EGFR's extracellular domain (ECD) with IR's ECD. Moreover, IGFR's intracellular domain (ICD) was substituted with IR's ICD, and the His-tagged receptors were transfected into CHO cells and treated with 4524-E7 for 30 min.

T1 sequence (P06213 1011-1382): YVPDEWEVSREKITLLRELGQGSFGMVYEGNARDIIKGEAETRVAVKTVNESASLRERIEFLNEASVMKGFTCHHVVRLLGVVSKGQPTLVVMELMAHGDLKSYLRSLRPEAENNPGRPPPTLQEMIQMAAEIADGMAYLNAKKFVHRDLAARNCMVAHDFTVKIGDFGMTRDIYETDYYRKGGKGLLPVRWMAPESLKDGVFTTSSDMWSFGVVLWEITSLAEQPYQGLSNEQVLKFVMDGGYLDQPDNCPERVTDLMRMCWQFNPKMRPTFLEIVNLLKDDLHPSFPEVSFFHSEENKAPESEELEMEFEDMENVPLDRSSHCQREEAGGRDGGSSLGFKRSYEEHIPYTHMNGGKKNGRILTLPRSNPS
Sequence of MET (P08581 25-1390): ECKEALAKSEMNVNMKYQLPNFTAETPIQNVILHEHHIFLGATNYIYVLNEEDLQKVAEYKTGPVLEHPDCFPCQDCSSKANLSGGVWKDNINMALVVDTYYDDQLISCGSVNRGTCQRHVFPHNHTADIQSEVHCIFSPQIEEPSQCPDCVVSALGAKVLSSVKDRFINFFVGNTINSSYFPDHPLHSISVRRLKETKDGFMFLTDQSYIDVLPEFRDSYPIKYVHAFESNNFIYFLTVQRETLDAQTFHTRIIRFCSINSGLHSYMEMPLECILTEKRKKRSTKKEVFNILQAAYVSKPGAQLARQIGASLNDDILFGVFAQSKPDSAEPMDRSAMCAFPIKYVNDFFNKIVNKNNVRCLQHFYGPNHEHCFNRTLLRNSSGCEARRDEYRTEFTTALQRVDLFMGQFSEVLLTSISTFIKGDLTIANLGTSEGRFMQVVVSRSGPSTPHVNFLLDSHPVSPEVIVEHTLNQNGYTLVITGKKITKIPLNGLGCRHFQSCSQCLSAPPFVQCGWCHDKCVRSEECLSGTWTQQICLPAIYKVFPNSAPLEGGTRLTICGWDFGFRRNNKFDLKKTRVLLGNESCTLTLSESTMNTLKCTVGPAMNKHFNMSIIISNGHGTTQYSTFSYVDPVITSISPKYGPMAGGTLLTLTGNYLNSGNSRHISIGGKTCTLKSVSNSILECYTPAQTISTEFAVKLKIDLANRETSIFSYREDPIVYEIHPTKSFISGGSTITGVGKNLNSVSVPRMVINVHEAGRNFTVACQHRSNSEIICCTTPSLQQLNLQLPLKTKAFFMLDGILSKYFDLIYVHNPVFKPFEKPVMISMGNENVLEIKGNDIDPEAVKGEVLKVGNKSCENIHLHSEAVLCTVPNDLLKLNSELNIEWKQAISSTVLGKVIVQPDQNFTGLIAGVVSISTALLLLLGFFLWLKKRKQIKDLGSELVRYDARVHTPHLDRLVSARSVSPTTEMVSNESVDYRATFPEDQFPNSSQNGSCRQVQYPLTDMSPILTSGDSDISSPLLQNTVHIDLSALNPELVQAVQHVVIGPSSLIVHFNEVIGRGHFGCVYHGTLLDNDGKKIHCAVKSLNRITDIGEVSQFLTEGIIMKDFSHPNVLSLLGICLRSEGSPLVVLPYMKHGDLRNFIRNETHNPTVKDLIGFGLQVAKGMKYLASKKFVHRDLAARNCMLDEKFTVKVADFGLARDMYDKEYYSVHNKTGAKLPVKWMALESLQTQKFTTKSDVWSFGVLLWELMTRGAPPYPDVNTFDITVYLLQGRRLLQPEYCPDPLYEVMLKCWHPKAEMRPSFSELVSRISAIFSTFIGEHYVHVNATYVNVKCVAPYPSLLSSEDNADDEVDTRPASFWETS
Sequence of FGFR1 (P11362 22-822, species assumed): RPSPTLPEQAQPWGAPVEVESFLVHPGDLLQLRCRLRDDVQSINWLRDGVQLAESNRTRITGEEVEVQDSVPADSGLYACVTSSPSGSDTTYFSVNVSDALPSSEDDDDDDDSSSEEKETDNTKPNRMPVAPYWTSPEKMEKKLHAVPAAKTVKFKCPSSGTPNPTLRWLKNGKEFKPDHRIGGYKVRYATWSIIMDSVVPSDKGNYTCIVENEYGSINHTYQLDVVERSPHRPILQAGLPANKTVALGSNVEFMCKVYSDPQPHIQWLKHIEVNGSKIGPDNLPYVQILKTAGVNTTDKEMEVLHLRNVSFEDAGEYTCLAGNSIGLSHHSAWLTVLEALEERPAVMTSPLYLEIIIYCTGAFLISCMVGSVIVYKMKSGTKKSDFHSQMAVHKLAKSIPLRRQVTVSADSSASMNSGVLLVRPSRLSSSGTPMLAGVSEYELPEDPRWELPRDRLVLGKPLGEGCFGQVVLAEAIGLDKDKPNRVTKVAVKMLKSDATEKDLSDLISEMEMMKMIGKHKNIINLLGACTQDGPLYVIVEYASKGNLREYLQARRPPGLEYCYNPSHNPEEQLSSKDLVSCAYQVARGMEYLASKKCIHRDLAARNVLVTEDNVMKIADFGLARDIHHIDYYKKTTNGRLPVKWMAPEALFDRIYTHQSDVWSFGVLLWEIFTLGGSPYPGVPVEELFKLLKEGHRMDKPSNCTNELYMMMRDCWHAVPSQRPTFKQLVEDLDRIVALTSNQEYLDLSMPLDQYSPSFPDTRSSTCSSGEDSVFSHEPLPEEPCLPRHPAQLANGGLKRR

Kd ([1]; UV titration, absorbance at 602 nm, read-out: binding constant Kd)	IGF-IR activation in muscle or liver [3]	inhibition of FGFR1 [4]	inhibition of MET [5]	activation of tested RTKs [7]	kinase stimulatory effect on hybrid kinase [8]	IR activation [9]	Compound	peak absorption at 560 and 602 nm in presence of GST-IRTK ([1]; spectra 200 to 800 nm)	IRTK kinase activity (histone H2B phosphorylation) [2]	proliferation of MCF7 cells [6]
~3.27 µM	did not stimulate IGF-IR activation						CC(=O)Oc1ccc(OC(C)=O)c2c1C(=O)C(Cl)=C(Cl)C2=O [DDN, 5,8-diacetyloxy-2,3-dichloro-1,4-naphthoquinone]	enhanced the peak absorption at 560 and 602 nm	activated the recombinant IRTK to phosphorylate histone H2B	
		slightly inhibited	slightly inhibited	none of the tested RTKs	abolishes the kinase stimulatory effect	selectively activated	O=C1c2ccccc2C(=O)C2SC(Nc3ccc(Cl)cc3)=NC12 (centres unmarked) [4524-E7, 2-((4-chlorophenyl)amino)naphtho[2,3-d]thiazole-4,9(3aH,9aH)-dione]		greatly enhanced	not able to induce the proliferation of MCF7 cells
